Data taken from patent publication US20260262643A1, “HERBICIDAL BENZOXAZINES” (FMC CORPORATION, priority 2022, published 2026).

Columns and labels:
pigweed, palmer [1] = test: Test A postemergence; format: in vivo, Amaranthus palmeri
In short: (§1)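 Weeds and crops in loam–sand blend were sprayed preemergence onto soil or postemergence at 2–10 cm (one- to two-leaf stage). Test chemicals were in a non-phytotoxic solvent with surfactant. After 10 days in the greenhouse, injury was rated visually against untreated controls on a 0 (no effect) to 100 (complete control) scale.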

oat, wild [2] = test: Test A postemergence; format: in vivo, Avena fatua
In short: as §1

kochia [3] = test: Test A preemergence; format: in vivo, Bassia scoparia
In short: as §1

foxtail, giant [4] = test: Test A postemergence; format: in vivo, Setaria faberi
In short: as §1

corn [5] = test: Test A postemergence; format: in vivo, Zea mays
In short: as §1

rice = test: Test B flooded paddy test; format: in vivo, Oryza sativa; settings: 250 g ai/ha, Flood, 13 days, 0 to 100 scale (0 no effect, 100 complete control)
In short: (§2)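 Two-leaf plants, 3 cm flood, in-water application, 13-day greenhouse hold, visual 0–100 rating vs untreated checks.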

goosegrass [6] = test: Test A postemergence; format: in vivo, Eleusine indica
In short: as §1

pigweed, palmer [7] = test: Test A preemergence; format: in vivo, Amaranthus palmeri
In short: as §1

barnyardgrass = test: Test B flooded paddy test; format: in vivo, Echinochloa crus-galli; settings: 250 g ai/ha, Flood, 13 days, 0 to 100 scale (0 no effect, 100 complete control)
In short: as §2

ragweed [8] = test: Test A preemergence; format: in vivo, Ambrosia artemisiifolia
In short: as §1

ducksalad = test: Test B flooded paddy test; format: in vivo, Heteranthera limosa; settings: 250 g ai/ha, Flood, 13 days, 0 to 100 scale (0 no effect, 100 complete control)
In short: as §2

blackgrass [9] = test: Test A preemergence; format: in vivo, Alopecurus myosuroides
In short: as §1

oat, wild [10] = test: Test A preemergence; format: in vivo, Avena fatua
In short: as §1

soybean [11] = test: Test A postemergence; format: in vivo, Glycine max
In short: as §1

foxtail, giant [12] = test: Test A preemergence; format: in vivo, Setaria faberi
In short: as §1

sedge, umbrella = test: Test B flooded paddy test; format: in vivo, Cyperus difformis; settings: 250 g ai/ha, Flood, 13 days, 0 to 100 scale (0 no effect, 100 complete control)
In short: as §2

goosegrass [13] = test: Test A preemergence; format: in vivo, Eleusine indica
In short: as §1

corn [14] = test: Test A preemergence; format: in vivo, Zea mays
In short: as §1

soybean [15] = test: Test A preemergence; format: in vivo, Glycine max
In short: as §1

wheat [16] = test: Test A postemergence; format: in vivo, Triticum aestivum
In short: as §1

blackgrass [17] = test: Test A postemergence; format: in vivo, Alopecurus myosuroides
In short: as §1

wheat [18] = test: Test A preemergence; format: in vivo, Triticum aestivum
In short: as §1

kochia [19] = test: Test A postemergence; format: in vivo, Bassia scoparia
In short: as §1

ragweed [20] = test: Test A postemergence; format: in vivo, Ambrosia artemisiifolia
In short: as §1

galium = test: Test A postemergence; format: in vivo, Galium aparine
In short: as §1

ryegrass, Italian [21] = test: Test A postemergence; format: in vivo, Lolium multiflorum
In short: as §1

ryegrass, Italian [22] = test: Test A preemergence; format: in vivo, Lolium multiflorum
In short: as §1

[23] = 125 g ai/ha, postemergence, 10 days, visual injury, 0 to 100 scale (0 no effect, 100 complete control)
[24] = 500 g ai/ha, Postemergence, 0 to 100 scale
[25] = 125 g ai/ha, visual injury after 10 days, 0 to 100 scale, 0 is no effect, 100 is complete control
[26] = 500 g ai/ha, 0 to 100 scale (0 no effect, 100 complete control), 10 days

Cc1ccc(C(=O)N2CC(C)Oc3c(Cl)cccc32)cc1-n1cncn1 (centres unmarked) [Compound 38]
100: Plant response rating, Foxtail, Giant (foxtail, giant [12]; [26]) | Plant response rating, Goosegrass (goosegrass [13]; [26])
80: Plant response rating, Corn (corn [5]; [24]) | Plant response rating, Ryegrass, Italian (ryegrass, Italian [22]; [26])
10: Plant response rating, Pigweed, Palmer (pigweed, palmer [7]; [25]) | Plant response rating, Oat, Wild (oat, wild [10]; [25]) | Plant response rating, Wheat (wheat [16]; [23]) | Plant response rating, Wheat (wheat [18]; [26]) | Plant response rating, Ryegrass, Italian (ryegrass, Italian [21]; [23])
0: Plant response rating, Oat, Wild (oat, wild [2]; [23]) | Plant response rating, Kochia (kochia [3]; [25]) | Plant response rating, Rice (rice) | Plant response rating, Barnyardgrass (barnyardgrass) | Plant response rating, Ragweed (ragweed [8]; [25]) | Plant response rating, Ragweed (ragweed [8]; [26]) | Plant response rating, Ducksalad (ducksalad) | Plant response rating, Sedge, Umbrella (sedge, umbrella) | Plant response rating, Soybean (soybean [15]; [25]) | Plant response rating, Blackgrass (blackgrass [17]; [23]) | Plant response rating, Wheat (wheat [18]; [25]) | Plant response rating, Ragweed (ragweed [20]; [23]) | Plant response rating, Ragweed (ragweed [20]; [24])
50: Plant response rating, Pigweed, Palmer (pigweed, palmer [1]; [24]) | Plant response rating, Soybean (soybean [11]; [24]) | Plant response rating, Galium (galium; [24])
90: Plant response rating, Foxtail, Giant (foxtail, giant [4]; [24])
60: Plant response rating, Foxtail, Giant (foxtail, giant [4]; [23]) | Plant response rating, Oat, Wild (oat, wild [10]; [26]) | Plant response rating, Kochia (kochia [19]; [24]) | Plant response rating, Ryegrass, Italian (ryegrass, Italian [21]; [24])
40: Plant response rating, Oat, Wild (oat, wild [2]; [24])
70: Plant response rating, Goosegrass (goosegrass [6]; [24]) | Plant response rating, Pigweed, Palmer (pigweed, palmer [7]; [26]) | Plant response rating, Blackgrass (blackgrass [9]; [26]) | Plant response rating, Foxtail, Giant (foxtail, giant [12]; [25]) | Plant response rating, Goosegrass (goosegrass [13]; [25]) | Plant response rating, Wheat (wheat [16]; [24]) | Plant response rating, Blackgrass (blackgrass [17]; [24]) | Plant response rating, Ryegrass, Italian (ryegrass, Italian [22]; [25])
20: Plant response rating, Corn (corn [5]; [23]) | Plant response rating, Corn (corn [14]; [25]) | Plant response rating, Kochia (kochia [19]; [23])
30: Plant response rating, Pigweed, Palmer (pigweed, palmer [1]; [23]) | Plant response rating, Kochia (kochia [3]; [26]) | Plant response rating, Goosegrass (goosegrass [6]; [23]) | Plant response rating, Blackgrass (blackgrass [9]; [25]) | Plant response rating, Corn (corn [14]; [26]) | Plant response rating, Soybean (soybean [15]; [26]) | Plant response rating, Galium (galium; [23])

C[C@H]1CN(C(=O)c2cccc(-n3cncn3)c2)c2cccc(C#N)c2O1 [Compound 46]
100: Plant response rating, Soybean (soybean [11]; [24]) | Plant response rating, Foxtail, Giant (foxtail, giant [12]; [26]) | Plant response rating, Goosegrass (goosegrass [13]; [26]) | Plant response rating, Galium (galium; [24])
40: Plant response rating, Oat, Wild (oat, wild [2]; [24]) | Plant response rating, Kochia (kochia [3]; [26]) | Plant response rating, Pigweed, Palmer (pigweed, palmer [7]; [25]) | Plant response rating, Ryegrass, Italian (ryegrass, Italian [21]; [23])
60: Plant response rating, Goosegrass (goosegrass [6]; [24]) | Plant response rating, Blackgrass (blackgrass [9]; [25]) | Plant response rating, Foxtail, Giant (foxtail, giant [12]; [25]) | Plant response rating, Goosegrass (goosegrass [13]; [25]) | Plant response rating, Soybean (soybean [15]; [26]) | Plant response rating, Galium (galium; [23]) | Plant response rating, Ryegrass, Italian (ryegrass, Italian [22]; [25])
90: Plant response rating, Foxtail, Giant (foxtail, giant [4]; [24]) | Plant response rating, Pigweed, Palmer (pigweed, palmer [7]; [26]) | Plant response rating, Blackgrass (blackgrass [9]; [26]) | Plant response rating, Soybean (soybean [11]; [23])
30: Plant response rating, Corn (corn [5]; [24]) | Plant response rating, Blackgrass (blackgrass [17]; [23]) | Plant response rating, Wheat (wheat [18]; [26])
20: Plant response rating, Pigweed, Palmer (pigweed, palmer [1]; [23]) | Plant response rating, Foxtail, Giant (foxtail, giant [4]; [23]) | Plant response rating, Soybean (soybean [15]; [25]) | Plant response rating, Kochia (kochia [19]; [23])
70: Plant response rating, Oat, Wild (oat, wild [10]; [26]) | Plant response rating, Blackgrass (blackgrass [17]; [24])
10: Plant response rating, Corn (corn [5]; [23]) | Plant response rating, Goosegrass (goosegrass [6]; [23]) | Plant response rating, Wheat (wheat [16]; [23])
80: Plant response rating, Kochia (kochia [19]; [24]) | Plant response rating, Ryegrass, Italian (ryegrass, Italian [21]; [24]) | Plant response rating, Ryegrass, Italian (ryegrass, Italian [22]; [26])
0: Plant response rating, Oat, Wild (oat, wild [2]; [23]) | Plant response rating, Rice (rice) | Plant response rating, Barnyardgrass (barnyardgrass) | Plant response rating, Ragweed (ragweed [8]; [25]) | Plant response rating, Ragweed (ragweed [8]; [26]) | Plant response rating, Ducksalad (ducksalad) | Plant response rating, Oat, Wild (oat, wild [10]; [25]) | Plant response rating, Sedge, Umbrella (sedge, umbrella) | Plant response rating, Corn (corn [14]; [25]) | Plant response rating, Corn (corn [14]; [26]) | Plant response rating, Wheat (wheat [18]; [25]) | Plant response rating, Ragweed (ragweed [20]; [23]) | Plant response rating, Ragweed (ragweed [20]; [24])
50: Plant response rating, Pigweed, Palmer (pigweed, palmer [1]; [24]) | Plant response rating, Wheat (wheat [16]; [24])
